Here are results for 28 molecules from US9789096B2, “Methods and compositions for selective and targeted cancer therapy” (Board of Regents of the University of Texas System, priority 2013, dated 2017).

One experiment concerns H2122. The experiment can be described thus: Cell viability dose-response, H2122. It counts as cell-based, human. The following applies: Homo sapiens; for AC50: NCI-H2122, Table 8. The method, then: (§1) FIG. 6A. […] Cell viability is plotted vs. compound concentration. Compound was added to cells plated at 15% confluence in 96-well plates in RPMI-1640 media supplemented with 5% Fetal Bovine Serum and 2 mM L-Glutamine. After 4 days of incubation, ATP levels were measured using Cell Titer Glo (Promega). Data are presented as the average of 2 replicates ±SEM.
(§2) Selectivity may be measured by the half maximal inhibitory concentration (IC50), which, as used herein, is a measure of the effectiveness of a compound in killing cells. This quantitative measure indicates how much of a particular compound is needed to kill a particular cell population by half (e.g., as indicated by the amount of ATP). […] The IC50 can be determined by constructing a dose-response curve. The lower the IC50, the higher the potency, and the greater the difference between IC50 values for different cell lines (e.g., sensitive lines vs. insensitive lines, and sensitive lines vs. normal lines) the greater the selectivity. […]
(§3) With this information, we synthesized and tested a series of small molecules derived in conception from the oxalamide and chromone scaffold including N-acyl ureas, as shown in Tables 6-8. Each compound was tested in a 12-point dose-response study starting at 50 micromolar and decreasing in 3-fold increments to sub-nanomolar concentrations, in duplicate. Additionally, one or more additional cell line was tested in the same way.

The next experiment concerns H1819. Put plainly: Cell viability dose-response, H1819. It counts as cell-based, human. The following applies: Homo sapiens; for AC50: NCI-H1819, Table 8, 12-point dose-response starting at 50 micromolar. As for the experimental part: as §1, §2, §3
Where [1] appears, read: NCI-H2122, 12-point dose-response starting at 50 micromolar, 3-fold increments, in duplicate, read-out: toxicity data, H2122.
[2] abbreviates: NCI-H1819, 12-point dose-response starting at 50 micromolar, 3-fold increments, in duplicate, read-out: toxicity data, H1819.
Where [3] appears, read: NCI-H2122, Table 9, competitor, read-out: IC50 to H2122 cells.
Setting [4] is: NCI-H2122, Tables 3 and 4, read-out: IC50 (uM) vs indicated non-small cell lung cancer cell line H2122.
The mark [5] stands for this setting: 12-point dose-response starting at 50 micromolar.

Like-named read-outs stand apart in the source and are kept apart here.

Turning to `COc1ccc(CCNC(=O)C(=O)Nc2ccc(C(=O)c3ccccc3)cc2)cc1` [SW206966-1], the IC50 in the experiment with H2122 (setting [1]) is 0.085 µM; in the experiment with H1819 (setting [2]) it was at least 49.5 µM. For `COc1ccc(CCNC(=O)C(=O)Nc2ccc(Cl)c(C#N)c2)cc1` [SW206959-1], the values for the IC50 in the experiment with H2122 (setting [1]), in the experiment with H2122 (setting [3]) and with H1819 (setting [2]) were 0.398 µM, 0.182 µM and at least 49.5 µM, respectively. For `COc1ccc(CCNC(=O)C(=O)CNc2ccncc2)cc1` [SW208130-1-A], the IC50 in the experiment with H2122 (setting [1]) and in the experiment on H1819 (setting [2]) was at least 49.5 µM each time. For `COc1ccc2nc(NC(=O)c3ccc(N=[N+]=[N-])cc3)sc2c1` [SW203728], the IC50 in the experiment with H2122 (setting [4]) was found to be 0.12 µM.

For `COc1ccc(CCNC(=O)c2ccc3ccccc3n2)cc1` [SW208052-1-A], the IC50 in the experiment with H2122 (setting [1]) and in the experiment with H1819 (setting [2]) was at least 49.5 µM in each case. With `O=C(NCCc1cccc(Cl)c1)C(=O)Nc1ccc(Cl)cc1` [SW208037-1-A], the IC50 in the experiment on H2122 (setting [1]) and in the experiment with H1819 (setting [2]) was at least 49.5 µM in each case. Regarding `COc1ccc(CCNC(=O)C(=O)Nc2ccc(F)c(Br)c2)cc1` [SW206878-1-A], the IC50 in the experiment with H2122 (setting [1]) was 0.384 µM; in the experiment with H1819 (setting [2]) it was at least 49.5 µM. As for `O=c1c(Cc2ccccc2F)coc2cc(OCc3cnn(-c4ccccc4)c3)ccc12` [SW209189-1], the results for the AC50 in the experiment on H2122 (setting [5]) and in the experiment with H1819 were 80 nM and 49500 nM, respectively. Regarding `COc1ccc(CCNC(=O)C(=O)Nc2cc(F)c(F)c(Br)c2)cc1` [SW206876-1-A], the IC50 in the experiment with H2122 (setting [1]) and in the experiment with H1819 (setting [2]) was at least 49.5 µM in each case. As for `O=c1c(Cc2ccc(F)cc2)coc2cc(OCc3cnn(-c4ccccc4)c3)ccc12` [SW209188-1], the half-maximal activity concentration (AC50) worked out at 86 nM with H2122 (setting [5]) and 49500 nM with H1819. In the case of `COc1ccc(Nc2ccc(C(=O)Nc3nc4ccc(OC)cc4s3)cc2)cc1` [SW203671], the IC50 in the experiment with H2122 (setting [4]) was found to be 0.314 µM.

As for `COc1ccc2nc(NC(=O)c3ccc(Nc4ccccc4)cc3)sc2c1` [SW203670], in the experiment on H2122 (setting [4]), the IC50 was found to be 0.108 µM. `COc1ccc(CCNC(=O)C(=O)Nc2cc(Cl)cc(Cl)c2)cc1` [SW206891-1-A]: the IC50 with H2122 (setting [1]) was at least 49.5 µM; in the experiment on H1819 (setting [2]), 43.8 µM. Turning to `COc1ccc(CCNC(=O)C(=O)Nc2ccc(C)cc2F)cc1` [SW206883-1-A], the IC50 with H2122 (setting [1]) is 0.727 µM; in the experiment with H2122 (setting [3]), 0.5 µM; in the experiment on H1819 (setting [2]), at least 49.5 µM. Regarding `O=C(NCCc1ccccc1)C(=O)Nc1ccc(Cl)cc1` [SW113361-2-A], the IC50 with H2122 (setting [1]) and with H1819 (setting [2]) was at least 49.5 µM each time.

In the case of `COc1ccc2nc(NC(=O)c3ccc(C(O)c4ccccc4)cc3)sc2c1` (stereo not drawn) [SW207003], in the experiment with H2122 (setting [4]), the IC50 was 0.006 µM. The same measure, in the same setting: under `COc1ccc2nc(NC(=O)c3ccc(C(O)c4ccccn4)cc3)sc2c1` (stereo not drawn) [SW203726] stands 0.029 µM; under `COc1ccc2nc(NC(=O)c3ccc(C(=O)N4CCCCC4)cc3)sc2c1` [SW203730], 0.845 µM. On the same count and under the same terms, next, `COc1ccc2nc(NC(=O)c3ccc(C(=O)NCc4ccccc4)cc3)sc2c1` [SW203732]: 0.013 µM. In the case of `COc1ccc2nc(NC(=O)c3ccc(C(O)c4ccncc4)cc3)sc2c1` (stereo not drawn) [SW203735], in the experiment on H2122 (setting [4]), the IC50 is 0.036 µM. The same measure, in the same setting: next, `COc1ccc2nc(NC(=O)c3ccc(C(=O)c4cccnc4)cc3)sc2c1` [SW203733]: 0.017 µM; `COc1ccc2nc(NC(=O)c3ccc(C(=O)N4CCOCC4)cc3)sc2c1` [SW203731]: 2.28 µM. With `COc1ccc2nc(NC(=O)c3ccc(C(=O)N4CCN(C)CC4)cc3)sc2c1` [SW203669], the IC50 in the experiment with H2122 (setting [4]) was at least 49.5 µM.

With `COc1ccc2nc(NS(=O)(=O)c3ccc4c(c3)OCCO4)sc2c1` [SW202748], in the experiment on H1819 (NCI-H1819, Tables 3 and 4, read-out: IC50 (uM) vs indicated non-small cell lung cancer cell line H1819), the IC50 is 69 µM. With `C#CCOc1ccc(CCNC(=O)C(=O)Nc2ccc(C(=O)c3ccccc3)cc2)cc1` [SW207038], the IC50 in the experiment on H2122 (NCI-H2122, cell prints its own unit, 12-point dose-response starting at 50 micromolar, read-out: toxicity data, H2122) is above 1 µM. Consider `COc1ccc2nc(NC(=O)c3ccc(C(=O)c4ccccn4)cc3)sc2c1` [SW203727], for which the IC50 with H2122 (setting [4]) stood at 0.016 µM. The same measure, in the same setting: under `C#CCOc1ccc2nc(NC(=O)c3ccc(C(=O)c4ccccc4)cc3)sc2c1` [SW202868] stands 0.005 µM; under `C#CCOCCOCCOCCOCCOc1ccc2nc(NC(=O)c3ccc(C(=O)c4ccccc4)cc3)sc2c1` [SW203734], 0.939 µM.

One may read the AC50 as the concentration giving half of the maximal activity seen. A higher AC50 goes with activity only at high concentration.
